PMC2248166, “Quantitative peptide binding motifs for 19 human and mouse MHC class I molecules derived using positional scanning combinatorial peptide libraries” (Immunome Research, 2008)

How the values were obtained:
Type in all cases: binding
HLA B*5401 = HLA B*5401 (Homo sapiens, UniProt P01889, A329T/C349S/D138N/D201E/E176V/E187T/E204Q/E69G/I76V/K202T/L119W/R155S/R180L/S121T/S35A/S48A/V127L/V306I/V36M/Y140L)
HLA A*3201 = HLA A*3201 (Homo sapiens, UniProt P04439, A270S/D101S/D185E/E176V/E277Q/F133L/G103R/G107R/G231S/H175R/I121M/I218V/I322F/K168Q/L105A/L300P/L318F/M331R/P208A/P217A/Q94H/R106L/R138Q/S129P/T104I/T323A/T345S/V100E/V321M/V358M); assay: biochemical
H-2 K^k = H-2 K^k (Mus musculus, UniProt P04223)
HLA A*3001 = HLA A*3001 (Homo sapiens, UniProt P04439, D140H/D185E/E176W/F33S/G80R/H175R/K168Q/R138E/R41S); assay: biochemical
H-2 D^b = H-2 D^b (Mus musculus, UniProt P01899)
H-2 D^d = H-2 D^d (Mus musculus, UniProt P01900)
HLA B*5101 = HLA B*5101 (Homo sapiens, UniProt P01889, A329T/A93T/A95T/C349S/D138N/D201E/D98Y/E187L/E204Q/E69T/G107R/I218V/K202T/L105A/L119W/N104I/Q94N/R106L/R155S/R180L/S101N/S121T/S35A/S48A/V306I/V36M/Y195H/Y91F)
H-2 K^d = H-2 K^d (Mus musculus, UniProt P01902)
HLA B*1503 = HLA B*1503 (Homo sapiens, UniProt P01889, A329T/A93T/A95T/C349S/D201E/D98Y/E187L/E204Q/K202T/N87E/Q94N/R155S/R180L/S121R/S35A/V306I/V36M/Y140S/Y91S); assay: biochemical
HLA B*5802 = HLA B*5802 (Homo sapiens, UniProt P01889, A329T/C349S/D201E/D98Y/E176V/E187L/E204Q/E69T/G107R/I218V/I90N/K202T/L105A/N104I/N87E/Q89R/Q94S/R106L/R155S/R180L/R86G/S101N/S121W/S35A/S48A/V127L/V306I/V36M/Y140S/Y91M)
HLA B*5801 = HLA B*5801 (Homo sapiens, UniProt P01889, A329T/C349S/D201E/D98Y/E176V/E187L/E204Q/E69T/G107R/I218V/I90N/K202T/L105A/L119I/N104I/N87E/Q89R/Q94S/R106L/R155S/R180L/R86G/S101N/S121R/S35A/S48A/T118I/V127L/V306I/V36M/Y140S/Y91M)
HLA A*6802 = HLA A*6802 (Homo sapiens, UniProt P04439, A269V/D140Y/D185E/E176V/E277Q/E87N/F33Y/G231S/I121R/I166T/I218V/L180W/L300P/L318F/N151K/P208A/P217A/Q86R/R138H/R169H/S129P/T345S/V36M)
HLA B*0801 = HLA B*0801 (Homo sapiens, UniProt P01889, A93T/A95T/D138N/E176V/E187T/K202T/Q94N/R180D/S35A/V36M/Y33D/Y91F); assay: biochemical
HLA B*3501 = HLA B*3501 (Homo sapiens, UniProt P01889, A329T/A93T/A95T/C349S/D201E/D98Y/E176V/E187L/E204Q/E69T/I218V/K202T/L119I/Q94N/R155S/R180L/S121R/S35A/S48A/T118I/V127L/V306I/V36M/Y140S/Y91F)
HLA B*5301 = HLA B*5301 (Homo sapiens, UniProt P01889, A329T/A93T/A95T/C349S/D201E/D98Y/E176V/E187L/E204Q/E69T/G107R/I218V/K202T/L105A/L119I/N104I/Q94N/R106L/R155S/R180L/S101N/S121R/S35A/S48A/T118I/V127L/V306I/V36M/Y140S/Y91F)
HLA B*1501 = HLA B*1501 (Homo sapiens, UniProt P01889, A329T/A93T/A95T/C349S/D201E/D98Y/E187L/E204Q/E69M/E70A/K202T/N87E/Q94N/R155S/R180W/S121R/S35A/S48A/V306I/V36M/Y140S/Y91S); assay: biochemical

Chain of H-2 D^b (P01887 21-119): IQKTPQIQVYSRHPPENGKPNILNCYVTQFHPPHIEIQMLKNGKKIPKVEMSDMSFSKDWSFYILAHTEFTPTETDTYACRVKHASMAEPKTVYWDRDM
Chain of H-2 D^b (P01899 25-362): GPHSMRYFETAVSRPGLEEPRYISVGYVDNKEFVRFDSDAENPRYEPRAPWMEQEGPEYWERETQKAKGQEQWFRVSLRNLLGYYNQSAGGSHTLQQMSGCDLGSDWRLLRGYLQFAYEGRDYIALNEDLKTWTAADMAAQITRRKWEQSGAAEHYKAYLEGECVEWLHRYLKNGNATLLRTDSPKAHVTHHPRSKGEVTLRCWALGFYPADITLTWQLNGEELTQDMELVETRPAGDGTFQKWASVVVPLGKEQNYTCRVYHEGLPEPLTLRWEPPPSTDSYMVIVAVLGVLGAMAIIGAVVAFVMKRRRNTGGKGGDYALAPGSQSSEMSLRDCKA
Chain of H-2 K^d (P01887 21-119): as the sequence (P01887 21-119) above
Chain of H-2 K^d (P01902 22-368): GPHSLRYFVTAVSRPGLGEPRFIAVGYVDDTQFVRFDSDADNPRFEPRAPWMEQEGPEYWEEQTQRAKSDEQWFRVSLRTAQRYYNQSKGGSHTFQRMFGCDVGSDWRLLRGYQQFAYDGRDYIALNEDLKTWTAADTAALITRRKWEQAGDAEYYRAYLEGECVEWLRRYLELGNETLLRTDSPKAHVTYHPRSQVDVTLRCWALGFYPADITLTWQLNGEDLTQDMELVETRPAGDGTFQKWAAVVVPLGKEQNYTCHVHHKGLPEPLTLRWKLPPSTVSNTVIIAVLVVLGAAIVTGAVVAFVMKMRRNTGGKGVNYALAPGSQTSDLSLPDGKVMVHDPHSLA
Chain of H-2 K^k (P01887 21-119): as the sequence (P01887 21-119) above
Chain of H-2 K^k (P04223 22-369): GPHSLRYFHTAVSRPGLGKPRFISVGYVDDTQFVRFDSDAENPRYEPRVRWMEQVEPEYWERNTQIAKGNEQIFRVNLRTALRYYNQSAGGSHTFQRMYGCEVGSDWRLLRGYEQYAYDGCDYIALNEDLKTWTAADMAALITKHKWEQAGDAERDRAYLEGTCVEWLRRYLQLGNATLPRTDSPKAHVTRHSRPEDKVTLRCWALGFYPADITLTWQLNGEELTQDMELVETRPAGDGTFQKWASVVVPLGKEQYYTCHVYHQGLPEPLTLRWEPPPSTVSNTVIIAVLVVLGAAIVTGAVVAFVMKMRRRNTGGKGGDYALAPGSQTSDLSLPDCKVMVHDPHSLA
Chain of H-2 D^d (P01900 whole entry, looked up): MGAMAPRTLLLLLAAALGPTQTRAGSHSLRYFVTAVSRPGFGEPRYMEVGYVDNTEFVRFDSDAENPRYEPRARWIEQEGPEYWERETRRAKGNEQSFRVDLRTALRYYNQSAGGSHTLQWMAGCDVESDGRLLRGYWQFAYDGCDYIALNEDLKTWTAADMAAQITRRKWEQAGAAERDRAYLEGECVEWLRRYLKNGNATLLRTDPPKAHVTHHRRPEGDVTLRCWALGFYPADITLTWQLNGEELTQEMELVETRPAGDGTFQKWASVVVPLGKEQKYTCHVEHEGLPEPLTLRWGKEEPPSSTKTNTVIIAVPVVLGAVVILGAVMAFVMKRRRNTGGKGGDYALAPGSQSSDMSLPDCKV

Sequence	Normalized average relative binding affinity(ARB) (HLA B*5401)	Normalized average relative binding affinity(ARB) (HLA A*3201)	Normalized average relative binding affinity(ARB) (H-2 K^k)	Normalized average relative binding affinity(ARB) (HLA A*3001)	Normalized average relative binding affinity(ARB) (H-2 D^b)	Normalized average relative binding affinity(ARB) (H-2 D^d)	Normalized average relative binding affinity(ARB) (HLA B*5101)	Normalized average relative binding affinity(ARB) (H-2 K^d)	Normalized average relative binding affinity(ARB) (HLA B*1503)	Normalized average relative binding affinity(ARB) (HLA B*5802)	Normalized average relative binding affinity(ARB) (HLA B*5801)	Normalized average relative binding affinity(ARB) (HLA A*6802)	Normalized average relative binding affinity(ARB) (HLA B*0801)	Normalized average relative binding affinity(ARB) (HLA B*3501)	Normalized average relative binding affinity(ARB) (HLA B*5301)	Normalized average relative binding affinity(ARB) (HLA B*1501)
XXXXXXFXX [3064.0125]	0.17	0.44	1.0	0.18	0.72	1.0	0.43	0.088	0.077	0.084	0.018	0.46	0.40	0.32	0.10	0.34
XXXXXXGXX [3064.0126]	0.073	0.051	0.34	0.044	0.45	0.031	0.33	0.28	0.12	0.024	0.031	0.071	0.17	0.12	0.058	0.52
XXXXXXHXX [3064.0127]	0.27	0.33	0.26	0.082	0.062	0.075	0.27	0.33	0.18	0.089	0.18	0.49	1.0	0.15	0.070	0.33
XXXXXXIXX [3064.0128]	0.15	0.094	0.037	0.16	0.33	0.048	0.59	0.045	0.29	0.058	0.65	0.55	0.030	0.48	0.10	0.40
XXXXXXKXX [3064.0129]	0.089	0.030	0.15	0.062	0.062	0.0067	0.12	0.023	0.091	0.031	0.037	0.086	0.26	0.073	0.022	0.15
XXXXXXLXX [3064.0130]	0.13	0.86	0.10	0.21	0.26	0.036	0.65	0.10	0.24	0.014	1.0	0.56	0.60	0.21	0.32	1.0
XXXXXXMXX [3064.0131]	0.065	0.10	0.064	0.32	0.24	0.024	0.68	0.080	0.18	0.35	0.30	0.51	0.62	0.13	0.15	0.54
XXXXXXNXX [3064.0132]	0.39	0.42	0.22	0.10	0.41	0.095	0.46	0.61	1.0	0.092	0.37	0.54	0.69	0.28	0.29	0.66
